Test results from patent US11564899B2, “Therapy for transthyretin-associated amyloidosis” (SOM INNOVATION BIOTECH, S.L., priority 2011, dated 2023).

Legend:
Assay type in all cases: biochemical
[1] = molecular target: T1, Recombinant Y78F TTR protein (Homo sapiens, UniProt P02766, Y98F); assay: Kinetic turbidity assay of TTR fibril formation; settings: Y78F TTR 0.4 mg/mL, RA=100*B/(A+B)
T1 construct: made in house
Description: Stocks of compounds assayed as inhibitors were dissolved in DMSO (spectrophotometry grade from Sigma) at 1.5 mM concentration. Working solutions were prepared by diluting the stock solution 1:4 in H2O/DMSO (2:1). In all cases, DMSO concentration was adjusted to 5% (v/v) in the final reaction assay mixture.
The assay comprises two stages, one stage where the Y78F protein is incubated together with the inhibitor during 30 minutes, and a second stage where fibril formation is induced by a change in pH and absorbance is measured along 1.5 h. Briefly, the assay was performed as follows:
First, the following solutions were prepared: Protein Y78F stock: 4 mg/mL in 20 mM phosphate, 100 mM KCl, pH 7.6. Incubation buffer: 10 mM phosphate, 100 mM KCl, 1 mM EDTA, pH 7.6. Dilution buffer: 400 mM sodium acetate, 100 mM KCl, 1 mM EDTA, pH 4.2.
Incubation buffer was then added up to a volume of 100 μL. The plate was incubated at 37° C. in a thermostated microplate reader with orbital shaking 15 s every minute for 30 min. A 100 μL portion of dilution buffer was dispensed to each well, and the mixture was incubated at 37° C. with shaking (15 s every min) in the microplate reader. Absorbance at 340 nm was monitored for 1.5 h at 1 min intervals. Data were collected and analyzed using Microsoft Excel software. All assays were done in duplicate.
After following the general procedure indicated above, time-course curves were obtained, from which the initial rates of fibril formation (V0) were calculated as the slopes of the linear increase of absorbance. […] Data were fitted to equation (1): V0=A+B*e^−C[I] (1), where V0 is the initial rate of fibril formation (in absorbance units per hour, Abs*h^−1), and [I] is the concentration of the inhibitor (μM). Adjustable parameters are A (Abs*h^−1), residual aggregation rate at high concentration of inhibitor; B (Abs*h^−1), amplitude or maximum decrease of initial rate of fibril formation; and C (μM^−1), the exponential constant. A+B is equal to the initial rate of fibril formation under the assay conditions in the absence of inhibitor. […]

[2] = molecular target: T2, Recombinant V122I TTR protein (Homo sapiens, UniProt P02766, V142I); assay: End-point turbidity assay (72 h) with V122I TTR; settings: V122I 0.4 mg/mL
T2 construct: made in house
Description: Recombinant V122I TTR protein, which is an amyloidogenic variation of human TTR associated with Familial Amyloid Cardiomyopathy (FAC), was produced by following the same procedure described for the Y78F variant used in Example 1. Plasmid DNA expressing the V122I mutant was prepared by site-directed mutagenesis as reported for Y78F in Dolado et al (supra). but using the following primers: 5′-[…]-3′ and 5′-[…]-3′.
This assay is used for TTR variants with lower amyloidegenicity than the Y78F variant when the kinetic turbidity assay is not sensitive enough for accurate measurements. The procedure followed to test the inhibitors by this end-point assay at 72 h is reported in Dolado et al, (supra). V122I TTR was incubated with the inhibitor under the same conditions described above for the kinetic turbidity assay (Example 1), using V122I protein at a concentration of 0.4 mg/mL and three different concentrations of inhibitor: […], corresponding to 0.5×[protein], 1×[protein], and 3×[protein]. After acid induction (addition of dilution buffer), samples were incubated without shaking for 72 h at 37° C. and then homogenized by mixing to resuspend any fibrils present. Turbidity was measured at 340 nm and normalized to amyloidogenesis in the absence of inhibitor.
The inhibitory potency of the tested compounds was evaluated as the percentage of absorvance reduction of the inhibitor-containing samples when compared with the inhibitor-free control sample.
% Fibril reduction=100×(1-turbidity sample/turbidity blank), where turbidity sample is the turbidity measured in the presence of inhibitor, and turbidity blank is that in the absence of inhibitor.

[3] = tested on: plasma TTR tetramer (controls and TTR V30M carriers); settings: human plasma (controls and V30M carriers pooled), 4 M urea IEF, relative to non-treated plasma of same donor
Description: The preparations were subjected to native PAGE (5% acrylamide) and the gel band containing TTR was excised and applied to an IEF gel (5% acrylamide). IEF was carried out in semi-denaturing conditions (4 M urea), containing 5% (v/v) ampholytes pH 4-6.5 (GE Healthcare), at 1200 V for 6 hours. Proteins were stained with Coomassie Blue, the gels were scanned and subjected to densitometry using the ImageQuant program (HP Scanjet 4470c, Hewlett Packard). […] A total of 12 plasma samples (5 controls and 7 carriers TTR V30M) were analyzed in 3 IEF gels. For each treatment condition, a minimum of 4 samples from different donors were processed. The ratio of TTR tetramer over Total TTR (TTR tetramer+monomer) was calculated for each plasma sample and represented in FIG. 2.
The increase of the tetramer/total TTR ratio induced by the treatment with test compounds was pooled for all samples and represented in Table 4 as % of stabilization. These values were calculated after normalizing the tetramer/total TTR ratio obtained for each sample, with the ratio obtained for the non-treated plasma of the corresponding individual donor as described below: % stabilization=100×((ratio sample−ratio nt)/ratio nt). Where “ratio sample” is tetramer/total TTR ratio in the presence of compound; and “ratio nt” is tetramer/total TTR ratio of non-treated plasma from same donor.

[4] = inhibitor 0.5x[protein] (3.6 microM)
[5] = inhibitor 1x[protein] (7.2 microM)
[6] = inhibitor 3x[protein] (21.8 microM)

Compound	RA (%) percentage of amyloidosis reduction (reduction of fibril formation rate at high inhibitor concentration) [1] [%]	% Fibril Reduction [2, 4] [%]	% Fibril Reduction [2, 5] [%]	% Fibril Reduction [2, 6] [%]	% stabilization (average +/− sem) of TTR tetramer [3]
O=C(O)c1cc(-c2ccc(F)cc2F)cc(I)c1O [Iododiflunisal]	99.8	83.2	85.0	88.2	–
O=C(O)c1ccc2nc(-c3cc(Cl)cc(Cl)c3)oc2c1 [Tafamidis, 2-(3,5-dichlorophenyl)-1,3-benzoxazole-6-carboxylic acid]	99	–	–	–	16.4 +/− 5.49%
Cc1ccc(C(=O)c2cc(O)c(O)c([N+](=O)[O-])c2)cc1 [Tolcapone, 3,4-dihydroxy-4′-methyl-5-nitrobenzophenone]	85.8	79.3	84.3	100.0	29.9 +/− 7.64%
